Results on eleven molecules are retold here after ChEMBL document CHEMBL1201862, “PubChem BioAssay data set” (2004).

Molecules are shown by their SMILES.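 Cultured in 96-well plates, cells were exposed to test compound for 48 hours across five concentrations. Abbreviation: GI50, concentration required for 50% inhibition of growth.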 Active and inactive are the calls of the source. Rule as the data show it: active = GI50 up to about 1.1 µM and inactive = higher.

Common to all, as to assay: NCI tumour cell line growth inhibition, 48 h
Test [1] has as its system SNB-75.
In test [2] the test system is MDA-MB-435.
In test [3] the test system is M14.
The subject of test [4] is EKVX.
Test [5] deals with HOP-62.
Test [6] has as its system CAKI-1.
In test [7] the test system is SK-MEL-2.
The subject of test [8] is LOX IMVI.
Test [9] has as its system UACC-62.
Test [10] concerns RPMI-8226.
The test system of test [11] is NCI-H522.
Test [12] concerns HCT-15.
Test [13] has as its system NCI-H226.
The test system of test [14] is UACC-257.
Test [15] concerns Malme-3M.
Test [16] concerns HOP-92.
For test [17], the system named is TK-10.
Test [18] has as its system HCC 2998.
In test [19] the test system is MOLT-4.

As for `CCOC(=O)C1=C(OS(=O)(=O)C(F)(F)F)CCCC1`, the GI50 in [1], in test [2], in test [3], in [4], in test [5] and in test [6] was > 100 µM (inactive) throughout. For the same molecule, the GI50 is > 100 µM (inactive) in test [7]; > 100 µM (inactive) in test [8]; > 100 µM (inactive) in test [9]; > 100 µM (inactive) in [10]; > 100 µM (inactive) in test [11]; above 100 µM in test [12]. Further, the GI50 in test [13], in test [14], in test [15], in test [16], in test [17] and in test [18] was > 100 µM (inactive) in each case. The GI50 in [19] is > 100 µM (inactive).

As to `ClC(Cl)(Cl)C1=N[C@H]2[C@H](Br)[C@@H]3O[C@@H](c4ccccc4)[C@H](c4ccccc4)O[C@@H]3[C@H]2O1`, the GI50 in [1] is 20.9 µM (inactive); in [2] it was 20.7 µM (inactive); in [3] it was 23.8 µM (inactive); in test [4] it was 26.2 µM (inactive); in test [5], 18.6 µM (inactive); in [6], 16 µM (inactive). Moreover, the GI50 in test [7] was 16.2 µM (inactive); in [8] it was 17.1 µM (inactive); in test [9], 16.3 µM (inactive); in test [10], 16.2 µM (inactive); in [11], 10.9 µM (inactive); in [12], 27.2 µM. Moreover, the GI50 in test [13] is 19.8 µM (inactive); in test [14] it was 18.3 µM (inactive); in [15], 19.2 µM (inactive); in test [16], 16.5 µM (inactive); in test [17], 20.4 µM (inactive); in [18] it was 15.2 µM (inactive). Besides, the GI50 in test [19] is 18.2 µM (inactive).

With `O=[N+]([O-])/C(Cl)=C(\Nc1ccccc1)C(Cl)=C(Cl)Cl`, the GI50 in test [1] is 2.19 µM (inactive); in [2], 18.5 µM (inactive); in test [3], 23.7 µM (inactive); in test [4], 39.8 µM (inactive); in [5], 29 µM (inactive); in test [6], 48.3 µM (inactive). In addition, the GI50 is 28.8 µM (inactive) in [7]; 32.9 µM (inactive) in test [8]; 26.2 µM (inactive) in test [9]; 25.6 µM (inactive) in test [10]; 42.7 µM (inactive) in test [11]; 25.4 µM in [12]. Moreover, the GI50 in test [13] is 26.5 µM (inactive); in [14], 49.8 µM (inactive); in test [15] it was 18 µM (inactive); in [16], 28.9 µM (inactive); in test [17], 56.6 µM (inactive); in test [18] it was 37.5 µM (inactive). For the same molecule, the GI50 in [19] was 33.3 µM (inactive).

In the case of `COC(=O)[C@]12CCC(C)(C)C[C@H]1[C@H]1C(=O)C=C3[C@@]4(C)C=C(C#N)C(=O)C(C)(C)[C@@H]4CC[C@@]3(C)[C@]1(C)CC2` [BARDOXOLONE METHYL], the GI50 in test [1] is 0.139 µM (active); in [2] it was 0.0164 µM (active); in [3], 0.0171 µM (active); in test [4] it was 0.0395 µM (active); in test [5], 0.0268 µM (active); in [6], 0.0273 µM (active). The GI50 in test [7] is 0.027 µM (active); in [8], 0.0129 µM (active); in test [9], 0.0145 µM (active); in test [10], < 0.0104 µM (active); in [11], 0.0728 µM (active); in test [12], 0.0178 µM. Further, the GI50 was 0.0346 µM (active) in test [13]; 0.0455 µM (active) in [14]; 0.0667 µM (active) in test [15]; 0.0769 µM (active) in test [16]; 0.0269 µM (active) in [17]; 0.0112 µM (active) in test [18]. Besides, the GI50 in test [19] was < 0.01 µM (active).

For the molecule `COc1oc(C(=O)NC2CCCCC2)c(-c2ccc(Cl)cc2)c1S(=O)(=O)c1ccccc1`, the GI50 was 20.8 µM (inactive) in [1]; 9.86 µM (inactive) in [2]; 26.9 µM (inactive) in test [3]; 9.98 µM (inactive) in test [4]; 6.27 µM (inactive) in [5]; 3.37 µM (inactive) in test [6]. For the same molecule, the GI50 in test [7] is 13.4 µM (inactive); in test [8] it was 2.78 µM (inactive); in [9], 17.1 µM (inactive); in test [10], 2.15 µM (inactive); in [11], 1.34 µM (inactive); in test [12] it was 44.9 µM. The GI50 in test [13] was 52.2 µM (inactive); in test [14], 11.8 µM (inactive); in test [15], 11.7 µM (inactive); in [16], 1.5 µM (inactive); in test [17], > 53.1 µM (inactive); in test [18] it was 19 µM (inactive). Further, the GI50 in test [19] was 6.79 µM (inactive).

Regarding `CC(C)Cn1cnc2c(Cl)nc3ccccc3c21`, the GI50 in test [1] is 18.7 µM (inactive); in test [2] it was 53.2 µM (inactive); in test [3] it was > 100 µM (inactive); in test [4] it was 16.6 µM (inactive); in [5], > 100 µM (inactive); in [6], 45.8 µM (inactive). The GI50 was > 100 µM (inactive) in test [7]; 35.5 µM (inactive) in test [8]; 40.9 µM (inactive) in [9]; 42.9 µM (inactive) in test [10]; 50.9 µM (inactive) in test [11]; 53.3 µM in test [12]. In addition, the GI50 was 40 µM (inactive) in [13]; > 100 µM (inactive) in test [14]; > 100 µM (inactive) in test [15]; 21.8 µM (inactive) in test [16]; 53.6 µM (inactive) in test [17]; 73.3 µM (inactive) in test [18]. Also, the GI50 in test [19] was 34.3 µM (inactive).

As to `CCOC(=O)/C=C(/C(=O)OCC)n1ccc(N)nc1=O`, the GI50 in test [1] was 95.1 µM (inactive); in test [2], > 100 µM (inactive); in test [3], > 100 µM (inactive); in [4], 84.9 µM (inactive); in test [5], > 100 µM (inactive); in test [6], 37 µM (inactive). Besides, the GI50 in [7] was > 100 µM (inactive); in test [8] it was 97.7 µM (inactive); in [9], > 100 µM (inactive); in [10] it was > 100 µM (inactive); in test [11], 23.6 µM (inactive); in test [12], above 100 µM. The GI50 was > 100 µM (inactive) in [13]; > 100 µM (inactive) in test [14]; 44.6 µM (inactive) in [15]; 53.3 µM (inactive) in test [16]; > 100 µM (inactive) in [17]; > 100 µM (inactive) in test [18]. In test [19], the GI50 is 92 µM (inactive).

As to `Cc1c(C#N)c2nnn(-c3cccc(Cl)c3)c(=O)n2c1-c1ccccc1`, the GI50 in test [1] is 1.76 µM (inactive); in test [2], 0.566 µM (active); in test [3], 4.17 µM (inactive); in test [4], 5.69 µM (inactive); in test [5] it was 0.891 µM (active); in [6] it was 6.62 µM (inactive). Also, the GI50 was 1.27 µM (inactive) in test [7]; 7.5 µM (inactive) in test [8]; 4.43 µM (inactive) in test [9]; 0.637 µM (active) in test [10]; 1.93 µM (inactive) in test [11]; 3.83 µM in test [12]. In addition, the GI50 is 2.25 µM (inactive) in test [13]; 26.3 µM (inactive) in test [14]; 9.48 µM (inactive) in test [15]; 26 µM (inactive) in test [16]; 9.91 µM (inactive) in test [17]; 3.48 µM (inactive) in [18].

Regarding `COc1ccc(CC2c3cc(OC)c(OC)cc3CC[N+]2(C)C)cc1OC` (centres undefined), the GI50 in [1], in test [2], in test [4], in test [6], in [7] and in test [8] was > 100 µM (inactive) each time. The GI50 in [9] is > 100 µM (inactive); in [10], > 100 µM (inactive); in test [11], > 100 µM (inactive); in test [12], above 100 µM; in test [13], > 100 µM (inactive); in [14], > 100 µM (inactive). Also, the GI50 in test [15], in test [16], in test [17], in test [18] and in test [19] was > 100 µM (inactive) each time.

As to `CCOC(=O)c1cc2cc([N+](=O)[O-])ccc2oc1=O`, the GI50 in test [1], in test [2], in test [3], in test [4], in test [5] and in [6] was > 100 µM (inactive) each time. In addition, the GI50 in test [7] is > 10 µM (inactive); in [8], > 100 µM (inactive); in test [9], 24.3 µM (inactive); in [10] it was > 100 µM (inactive); in test [11], > 100 µM (inactive); in test [12] it was above 100 µM. The GI50 is > 100 µM (inactive) in test [13]; > 100 µM (inactive) in [14]; > 100 µM (inactive) in [15]; > 100 µM (inactive) in test [16]; 58.6 µM (inactive) in [18]; > 100 µM (inactive) in [19].

Take `COc1cccc([C@H]2CC(=O)c3cc4c(cc3N2)OCO4)c1`: the GI50 in [1] is > 100 µM (inactive); in [2], 0.0743 µM (active); in test [3], 0.237 µM (active); in test [5], 0.568 µM (active); in test [6] it was 0.384 µM (active); in [7], 0.578 µM (active). For the same molecule, the GI50 in [8] was 0.714 µM (active); in test [9], 0.406 µM (active); in test [10], 0.579 µM (active); in test [11], 0.238 µM (active); in test [12] it was 0.341 µM; in test [13] it was 0.263 µM (active). In addition, the GI50 in test [14] is 0.91 µM (active); in [15], 0.671 µM (active); in test [16], 19.1 µM (inactive); in test [17], 0.979 µM (active); in test [18] it was 0.434 µM (active); in test [19], 0.938 µM (active).
